Reference: patent publication US20190374509A1, “Methods of Using Metamizole for Treatment of Pyrexia in Equines” (Kindred Biosciences, Inc., priority 2018, published 2019)

System: horses
Test: Margin of safety study, IV three times daily for 9 days: clinical pathology (serum chemistry, hematology, urinalysis), body weight, physical examination
Format: in vivo
Experimental: A study was conducted to evaluate the margin of safety of metamizole when administered intravenously to horses for 9 days at doses of 0 mg/kg (0×), 30 mg/kg (1×), 60 mg/kg (2×), and 90 mg/kg (3×) of body weight three times daily (TID), every 8 hours±30 min.
This was a prospective, blinded, randomized, placebo-controlled, parallel-group laboratory study in research horses. Thirty-two horses were enrolled in the study (Table 1).
Treatment phase involved administration of the investigational drug or placebo. The investigational drug was a sterile injectable formulation of dipyrone (Zimeta™, Corden Pharma, Caponago, Italy) (500 mg/mL) in 100 mL glass bottles. The placebo was sterile injectable saline (Nova-Tech Inc, Grand Island, NE) (0.9% sodium chloride) in 500 mL plastic bottles labeled for veterinary use. Dipyrone treatment groups were 30 mg/kg (1×), 60 mg/kg (2×), and 90 mg/kg (3×). Placebo treatment group was saline administered at a volume to match the 3× dipyrone group (0×). The dose was calculated based on body weight and administered three times daily for nine consecutive days. Due to the large volume of injection at the higher dose groups, treatment was administered via indwelling intravenous (IV) catheters. Intravenous catheters were placed using standard techniques. Horses were sedated with xylazine (AnaSed® LA, VetOne, MWI, Boise, Id.) and the skin was desensitized with subcutaneous injection of lidocaine (VetOne, MWI, Boise, Id.). Intravenous catheters were replaced at the discretion of the study director and were maintained with heparinized saline flush prior to and following dose administration.
Randomization occurred on Study Day −1. […] .
All statistical analyses were performed using SAS, version 9.4 (SAS Institute, Cary, N.C.). The individual horse was the experimental unit in the statistical analysis. For statistical modeling, all main effects, interaction terms, and pairwise comparisons of the active groups (dipyrone) with the placebo group were assessed at the two-sided 0.10 significance level (unadjusted) with the exception of the three-way interaction, which was assessed at the two-sided 0.05 significance level (unadjusted).
For continuous endpoints with repeated post-treatment measurements (serum chemistry, coagulation, hematology, urinalysis, body weight, body temperature, heart rate and respiratory rate), repeated measurement analysis of covariance (SAS MIXED procedure RMANCOVA) was used to evaluate a model including treatment, time, sex, treatment by sex interaction, treatment by time interaction, and treatment by time by sex three-way interaction as fixed effects. In addition, baseline values were included as a covariate and remained in the model regardless of its significance. Baseline values were defined as the values prior to and nearest to the first dosing.

[1] = 1X, 30 mg/kg IV every 8 hours, Day 4
[2] = 1X, 30 mg/kg IV every 8 hours, Day 8
[3] = 1X, 30 mg/kg IV every 8 hours, Mares
[4] = 2X, 60 mg/kg IV every 8 hours, Day 4
[5] = 2X, 60 mg/kg IV every 8 hours, Day 8
[6] = 2X, 60 mg/kg IV every 8 hours, Mares
[7] = 3X, 90 mg/kg IV every 8 hours, Day 4
[8] = 3X, 90 mg/kg IV every 8 hours, Day 8
[9] = 3X, 90 mg/kg IV every 8 hours, Mares

## Cc1c(N(C)CS(=O)(=O)O)c(=O)n(-c2ccccc2)n1C [dipyrone, [(2,3-dihydro-1,5-dimethyl-3-oxo-2-phenyl-1H-pyrazol-4-yl)methylamino] methanesulfonic acid]
[1]
  Absolute Basophil Count Day 4 Range: 0.00-0.19 cells 10^3/μL
  Cholesterol Day 4 Range: 54 to 77 mg/dL
  Cholesterol LS Means: 65.352 mg/dL
  Creatinine Day 4 Range: 0.9 to 2.0 mg/dL
  Mean Corpuscular Hemoglobin Concentration Day 4 Range: 34.9 to 36.1 g/dL
  Mean Corpuscular Volume Day 4 Range: 40.8 to 48.7 fL
  Mean Corpuscular Volume LS Means: 46.512 fL
  Percent Basophil Day 4 Range: 0.0-2.3%
  Total Bilirubin Day 4 Range: 0.8 to 3.4 mg/dL
  Total Bilirubin LS Means: 2.301 mg/dL
[2]
  Absolute Basophil Count Day 8 Range: 0.00-0.52 cells 10^3/μL
  Cholesterol Day 8 Range: 64 to 87 mg/dL
  Creatinine Day 8 Range: 0.6 to 1.6 mg/dL
  Creatinine LS Means: 1.118 mg/dL
  Mean Corpuscular Hemoglobin Concentration Day 8 Range: 34.1 to 39.4 g/dL
  Mean Corpuscular Hemoglobin Concentration LS Means: 35.513 g/dL
  Mean Corpuscular Volume Day 8 Range: 40.8 to 49.3 fL
  Mean Corpuscular Volume LS Means: 47.000 fL
  Percent Basophil Day 8 Range: 0.0-2.6%
  Total Bilirubin Day 8 Range: 1.7 to 4.1 mg/dL
  Total Bilirubin LS Means: 2.914 mg/dL
1X, 30 mg/kg IV every 8 hours, Geldings
  Percent Basophil LS Means: 0.849%
[3]
  Absolute Basophil Count LS Means: 0.200 cells 10^3/μL
  Percent Basophil LS Means: 1.374%
[4]
  Absolute Basophil Count Day 4 Range: 0.00-0.12 cells 10^3/μL
  Cholesterol Day 4 Range: 43 to 74 mg/dL
  Cholesterol LS Means: 56.772 mg/dL
  Creatinine Day 4 Range: 1.1 to 2.0 mg/dL
  Mean Corpuscular Hemoglobin Concentration Day 4 Range: 34.2 to 36.1 g/dL
  Mean Corpuscular Volume Day 4 Range: 41.7 to 49.4 fL
  Mean Corpuscular Volume LS Means: 46.284 fL
  Percent Basophil Day 4 Range: 0.0-1.3%
  Total Bilirubin Day 4 Range: 1.6 to 4.0 mg/dL
  Total Bilirubin LS Means: 2.745 mg/dL
[5]
  Absolute Basophil Count Day 8 Range: 0.00-0.21 cells 10^3/μL
  Cholesterol Day 8 Range: 52 to 87 mg/dL
  Creatinine Day 8 Range: 0.6 to 1.4 mg/dL
  Creatinine LS Means: 0.958 mg/dL
  Mean Corpuscular Hemoglobin Concentration Day 8 Range: 32.9 to 35.5 g/dL
  Mean Corpuscular Hemoglobin Concentration LS Means: 34.080 g/dL
  Mean Corpuscular Volume Day 8 Range: 43.2 to 50.8 fL
  Mean Corpuscular Volume LS Means: 47.134 fL
  Percent Basophil Day 8 Range: 0.0-2.7%
  Total Bilirubin Day 8 Range: 1.6 to 6.1 mg/dL
  Total Bilirubin LS Means: 4.495 mg/dL
2X, 60 mg/kg IV every 8 hours, Geldings
  Percent Basophil LS Means: 0.949%
[6]
  Absolute Basophil Count LS Means: 0.059 cells 10^3/μL
  Percent Basophil LS Means: 0.520%
[7]
  Absolute Basophil Count Day 4 Range: 0.00-0.39 cells 10^3/μL
  Cholesterol Day 4 Range: 43 to 73 mg/dL
  Cholesterol LS Means: 54.144 mg/dL
  Creatinine Day 4 Range: 1.1 to 2.1 mg/dL
  Mean Corpuscular Hemoglobin Concentration Day 4 Range: 34.3 to 36.0 g/dL
  Mean Corpuscular Volume Day 4 Range: 43.0 to 50.4 fL
  Mean Corpuscular Volume LS Means: 46.560 fL
  Percent Basophil Day 4 Range: 0.0-4.0%
  Total Bilirubin Day 4 Range: 1.7 to 5.5 mg/dL
  Total Bilirubin LS Means: 3.074 mg/dL
[8]
  Absolute Basophil Count Day 8 Range: 0.00-0.41 cells 10^3/μL
  Cholesterol Day 8 Range: 55 to 96 mg/dL
  Creatinine Day 8 Range: 0.7 to 1.6 mg/dL
  Creatinine LS Means: 1.144 mg/dL
  Mean Corpuscular Hemoglobin Concentration Day 8 Range: 33.1 to 34.5 g/dL
  Mean Corpuscular Hemoglobin Concentration LS Means: 33.899 g/dL
  Mean Corpuscular Volume Day 8 Range: 43.8 to 51.3 fL
  Mean Corpuscular Volume LS Means: 47.708 fL
  Percent Basophil Day 8 Range: 0.0-2.1%
  Total Bilirubin Day 8 Range: 2.8 to 6.2 mg/dL
  Total Bilirubin LS Means: 4.579 mg/dL
3X, 90 mg/kg IV every 8 hours, Geldings
  Percent Basophil LS Means: 0.924%
[9]
  Absolute Basophil Count LS Means: 0.188 cells 10^3/μL
  Percent Basophil LS Means: 1.731%
30, 60, 90 mg/kg IV every 8 hours for 9 days vs placebo
  Urinalysis, body weights, and physical examination parameters: No significant differences
